Here are results for eleven compounds from US20180037595A1, “BENZOXABOROLE COMPOUNDS AND USES THEREOF” (GLAXOSMITHKLINE INTELLECTUAL PROPERTY (NO.2) LIMITED, priority 2015, published 2018).

The test system of assay [1] is A. baumannii ATCC 17978. The assay can be described thus: General antimicrobial activity assay (CLSI broth microdilution). In kind it is cell-based. The protocol: (§1) Whole-cell antimicrobial activity was determined by broth microdilution using the Clinical and Laboratory Standards Institute (CLSI) recommended procedure, Document M7-A7, “Methods for Dilution Susceptibility Tests for Bacteria that Grow Aerobically”.
(In general: Dilution methods test growth across graded concentrations, often in twofold steps.)

The subject of assay [2] is E. coli K12 tolC::Tn10. The description is as above. It is filed as cell-based. The note with it: Escherichia coli, read-out: MIC: E. coli K12 tolC::Tn10. The protocol:
as §1

Assay [3] deals with E. coli K12. The description is as above. It is filed as cell-based. The protocol:
as §1

For assay [4], the system named is P. aeruginosa PA01. The description is as above. It is filed as cell-based. The protocol:
as §1

For assay [5], the target named is Mtb LeuRS (Mycobacterium tuberculosis, UniProt P9WFV1). In words: LeuRS aminoacylation assay, IC50 determination. It is filed as biochemical, M. tuberculosis. The protocol:
For biochemical analyses an N-terminal six histidine-tagged LeuRS was over-expressed in Escherichia coli which were E. coli codon-optimised (GenScript, Piscataway N.J., USA), from human mitochondria and cytoplasm, and M. tuberculosis. N-terminal six histidine-tagged LeuRS proteins were over-expressed and purified according to Novagen (Madison, Wis., USA) using an E. coli BL21(DE3) T7 RNA polymerase over-expression strain.
Experiments were performed in 96-well microtiter plates, using 80 μL reaction mixtures containing 50 mM HEPES-KOH (pH 8.0), 30 mM MgCl2 30 mM KCl, 13 μM L-[^14C]leucine (306 mCi/mmol, Perkin-Elmer), 15 uM total E. coli tRNA (Roche, Switzerland), 0.02% (w/v) BSA, 1 mM DTT, 0.2 μM LeuRS and 4 mM ATP at 30° C. Reactions were started by the addition of 4 mM ATP. After 7 minutes, reactions were quenched and tRNA was precipitated by the addition of 50 μL of 10% (w/v) TCA and transferred to 96-well nitrocellulose membrane filter plates (Millipore Multiscreen HTS, MSHAN4B50). Each well was then washed three times with 100 μL of 5% TCA. Filter plates were then dried under a heat lamp and the precipitated L-[^14C]leucine tRNALeu were quantified by liquid scintillation counting using a Wallac MicroBeta Trilux model 1450 liquid scintillation counter (PerkinElmer, Waltham, Mass., USA). The only difference was with the human cytoplasmic LeuRS when we used tRNA isolated from Brewer's Yeast (Roche Diagnostics GmbH).
Reactions were initiated by the addition of 4 mM ATP. Reactions were stopped after 7 minutes then precipitated and counted to quantify radioactivity. IC50 values were determined using the Graphpad Prism software package (Graphpad Software Inc. (La Jolla, Calif., USA).

In assay [6] the target is Human cyto LeuRS (Homo sapiens, UniProt Q9P2J5). The assay can be described thus: LeuRS aminoacylation assay, IC50 determination. It is filed as biochemical.
Assay [7] concerns the target T1, Human mito LeuRS (Homo sapiens, UniProt Q15031).
T1 sequence (Q15031 1-903): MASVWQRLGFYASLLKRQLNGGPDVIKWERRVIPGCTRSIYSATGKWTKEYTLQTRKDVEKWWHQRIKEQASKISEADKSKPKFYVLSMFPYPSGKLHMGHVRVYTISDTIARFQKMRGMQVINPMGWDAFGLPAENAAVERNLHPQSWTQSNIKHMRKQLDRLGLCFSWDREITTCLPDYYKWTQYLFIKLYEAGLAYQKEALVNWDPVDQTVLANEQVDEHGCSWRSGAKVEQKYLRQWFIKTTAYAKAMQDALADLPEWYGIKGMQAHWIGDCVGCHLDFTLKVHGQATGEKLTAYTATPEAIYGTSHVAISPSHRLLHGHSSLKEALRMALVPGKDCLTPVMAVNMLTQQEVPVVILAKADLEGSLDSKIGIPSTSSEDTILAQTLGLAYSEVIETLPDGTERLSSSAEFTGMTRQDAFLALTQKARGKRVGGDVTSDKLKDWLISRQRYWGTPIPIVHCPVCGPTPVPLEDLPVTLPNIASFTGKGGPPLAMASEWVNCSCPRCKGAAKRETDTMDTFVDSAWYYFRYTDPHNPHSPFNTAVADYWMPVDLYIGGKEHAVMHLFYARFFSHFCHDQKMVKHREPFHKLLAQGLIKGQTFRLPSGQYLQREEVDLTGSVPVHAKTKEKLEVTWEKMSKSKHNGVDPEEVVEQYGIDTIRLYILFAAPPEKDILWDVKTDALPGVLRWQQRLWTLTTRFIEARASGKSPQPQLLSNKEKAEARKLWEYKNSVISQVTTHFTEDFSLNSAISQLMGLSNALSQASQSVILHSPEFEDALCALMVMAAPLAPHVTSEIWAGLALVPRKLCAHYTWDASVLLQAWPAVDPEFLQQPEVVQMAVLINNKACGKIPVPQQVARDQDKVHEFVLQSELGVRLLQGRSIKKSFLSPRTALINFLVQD
The assay can be described thus: LeuRS aminoacylation assay, IC50 determination. It is filed as biochemical.

Assay [8] relates to HepG2 cells. In words: HepG2 cytotoxicity assay (resazurin). In kind it is cell-based. (Resazurin is reduced to fluorescent resorufin, in cell work by metabolically active cells.)
Assay [9] has as its system M. tuberculosis standard strain Mtb H37Rv. In words: MIC determination against mycobacteria (resazurin microtiter assay). It is filed as cell-based, Mycobacterium tuberculosis. The note with it: for Selectivity Index (A/B): HepG2 cell 48 h Tox50 (A) / Mtb H37Rv MIC (B); for MIC: Mycobacterium tuberculosis, H37RV, read-out: Mtb H37Rv MIC (B).
Assay [10] concerns M. tuberculosis clinical isolates. The assay can be described thus: MIC against clinical strains (BACTEC MGIT 960 System). It is filed as cell-based. The note with it: Mycobacterium tuberculosis, nearly all of the clinical isolate strains of Tables 2A-2D.
Where [11] appears, read: Acinetobacter baumannii, ATCC17978; read-out: MIC: A. baumannii ATCC 17978.
Where [12] appears, read: Escherichia coli, K12; read-out: MIC: E. coli K12.
[13] abbreviates: Pseudomonas aeruginosa, PA01; read-out: MIC: P. aeruginosa PA01.
The mark [14] stands for this setting: Homo sapiens, HepG2, 48 h; read-out: HepG2 cell 48 h Tox50 (A).
[15] abbreviates: listed as EXAMPLE 4 G4-Cl, hydrochloride.
The mark [16] stands for this setting: Acinetobacter baumannii, ATCC17978, read-out: MIC: A. baumannii ATCC 17978.
Setting [17] is: Escherichia coli, K12, read-out: MIC: E. coli K12.
Setting [18] is: Pseudomonas aeruginosa, PA01, read-out: MIC: P. aeruginosa PA01.
[19] abbreviates: Homo sapiens, HepG2, 48 h, read-out: HepG2 cell 48 h Tox50 (A).

≈ marks a conversion by molar mass, not a printed value. Read-outs that look alike come from different tables or passages of the source.

Sequence of Mtb LeuRS (P9WFV1 whole entry): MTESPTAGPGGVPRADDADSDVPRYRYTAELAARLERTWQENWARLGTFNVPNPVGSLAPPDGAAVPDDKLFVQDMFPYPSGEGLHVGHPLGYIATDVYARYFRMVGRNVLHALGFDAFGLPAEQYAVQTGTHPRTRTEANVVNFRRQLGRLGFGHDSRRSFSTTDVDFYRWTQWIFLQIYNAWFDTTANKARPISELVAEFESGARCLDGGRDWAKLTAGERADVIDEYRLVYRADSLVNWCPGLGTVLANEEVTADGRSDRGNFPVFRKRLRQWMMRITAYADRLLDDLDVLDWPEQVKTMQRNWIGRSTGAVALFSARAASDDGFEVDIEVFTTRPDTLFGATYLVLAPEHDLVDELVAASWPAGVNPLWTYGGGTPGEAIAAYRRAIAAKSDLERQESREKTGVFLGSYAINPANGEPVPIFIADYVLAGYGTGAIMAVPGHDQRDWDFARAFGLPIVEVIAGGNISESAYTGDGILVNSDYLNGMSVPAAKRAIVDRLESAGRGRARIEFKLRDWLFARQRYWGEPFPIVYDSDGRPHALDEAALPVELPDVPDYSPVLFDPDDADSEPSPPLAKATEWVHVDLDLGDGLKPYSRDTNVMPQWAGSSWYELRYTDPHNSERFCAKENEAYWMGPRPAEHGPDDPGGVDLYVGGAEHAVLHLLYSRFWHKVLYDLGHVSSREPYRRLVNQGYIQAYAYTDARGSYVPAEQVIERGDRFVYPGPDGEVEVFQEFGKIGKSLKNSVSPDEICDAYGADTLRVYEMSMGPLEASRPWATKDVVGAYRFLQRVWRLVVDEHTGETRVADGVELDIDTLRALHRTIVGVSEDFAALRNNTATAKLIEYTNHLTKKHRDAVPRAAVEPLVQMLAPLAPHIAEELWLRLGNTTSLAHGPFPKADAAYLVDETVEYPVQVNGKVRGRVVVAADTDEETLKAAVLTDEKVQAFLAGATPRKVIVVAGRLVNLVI
Sequence of Human cyto LeuRS (Q9P2J5 whole entry): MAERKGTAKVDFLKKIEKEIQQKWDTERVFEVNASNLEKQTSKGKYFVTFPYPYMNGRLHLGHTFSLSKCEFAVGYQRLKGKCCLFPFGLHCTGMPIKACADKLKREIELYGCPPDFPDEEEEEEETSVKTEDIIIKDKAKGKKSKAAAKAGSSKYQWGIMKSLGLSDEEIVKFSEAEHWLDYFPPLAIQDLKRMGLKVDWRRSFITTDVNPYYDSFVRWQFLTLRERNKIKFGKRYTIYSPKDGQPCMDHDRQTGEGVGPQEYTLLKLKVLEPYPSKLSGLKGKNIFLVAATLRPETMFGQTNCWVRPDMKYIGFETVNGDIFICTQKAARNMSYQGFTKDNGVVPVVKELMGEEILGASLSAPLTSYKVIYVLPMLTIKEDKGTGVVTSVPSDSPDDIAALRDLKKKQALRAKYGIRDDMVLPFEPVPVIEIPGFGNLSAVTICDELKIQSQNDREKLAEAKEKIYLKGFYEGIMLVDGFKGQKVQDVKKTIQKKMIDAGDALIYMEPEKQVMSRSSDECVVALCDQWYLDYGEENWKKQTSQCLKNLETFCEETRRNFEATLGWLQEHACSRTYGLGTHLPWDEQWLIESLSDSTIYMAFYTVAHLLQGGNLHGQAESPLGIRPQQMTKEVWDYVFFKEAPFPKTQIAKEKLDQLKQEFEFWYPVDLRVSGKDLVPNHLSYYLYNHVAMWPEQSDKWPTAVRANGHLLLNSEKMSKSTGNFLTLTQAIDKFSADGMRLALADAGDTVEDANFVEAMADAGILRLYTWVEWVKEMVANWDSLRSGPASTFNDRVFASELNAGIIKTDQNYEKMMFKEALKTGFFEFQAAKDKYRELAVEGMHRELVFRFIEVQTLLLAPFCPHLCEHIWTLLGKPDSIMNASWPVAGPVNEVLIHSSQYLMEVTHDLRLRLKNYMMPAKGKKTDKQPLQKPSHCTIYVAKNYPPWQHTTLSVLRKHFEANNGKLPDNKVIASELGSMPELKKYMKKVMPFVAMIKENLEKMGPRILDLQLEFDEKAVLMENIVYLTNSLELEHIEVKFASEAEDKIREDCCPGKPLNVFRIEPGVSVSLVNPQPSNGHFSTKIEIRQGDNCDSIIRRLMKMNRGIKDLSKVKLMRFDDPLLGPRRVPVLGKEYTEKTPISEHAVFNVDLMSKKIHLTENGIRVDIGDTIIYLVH

As a reminder, the MIC is the lowest concentration that inhibits growth of the organism. On to `CCOc1ccc(Br)c2c1B(O)O[C@@H]2CN` [Example C4-Br, reference compound], for which the minimum inhibitory concentration (MIC) in assay [1] (setting [11]), in [2], in assay [3] (setting [12]) and in [4] (setting [13]) was 64 µg/mL (≈ 224 µM) throughout. Also, the IC50 in [5] (Mtb LeuRS IC50) is 0.07 µM; in [6], 31 µM; in assay [7] it was > 300 µM; in [8] (setting [14]), 32 µM.

Consider `Cl.NC[C@H]1OB2OCCOc3ccc(Cl)c1c32` [Example 4, (S)-(3-chloro-7,8-dihydro-2H-1,6,9-trioxa-9a-borabenzo[cd]azulen-2-yl)methanamine hydrochloride], for which the “Selectivity Index (A/B)” value in assay [9] (setting [15]) was >12500; in assay [9] (listed as Example 4 G4-CI, hydrochloride), > 12,500. Also, the MIC in assay [9] was < 0.1 µM; in assay [1] (setting [16]), 64 µg/mL; in assay [2], 64 µg/mL; in [3] (setting [17]) it was 64 µg/mL; in assay [4] (setting [18]), 64 µg/mL. The “Mtb H37Rv MIC (B)” value in assay [9] (setting [15]) stood at 0.08 µM. Also, the IC50 in assay [5] (read-out: Mtb LeuRS IC50) was 0.148 µM; in assay [5] (said to be sub-micromolar, read-out: IC50 values against M. tuberculosis), 0.1 µM; in assay [6] it was 94.7 µM; in assay [7], > 300 µM; in assay [8] (setting [19]), > 1000 µM.

With `NCC1OB2OCCOc3cccc1c32` (racemic) [Example C2-H, reference compound], the “Selectivity Index (A/B)” value in assay [9] is listed as >26. Also, the MIC in [1] (setting [16]) came to 2 µg/mL (≈ 9.76 µM); in [2], 4 µg/mL (≈ 19.5 µM); in assay [3] (setting [17]) it was 2 µg/mL (≈ 9.76 µM); in assay [4] (setting [18]), 2 µg/mL (≈ 9.76 µM). The IC50 in assay [5] (read-out: Mtb LeuRS IC50) is 0.506 µM; in [6], 272 µM; in assay [7], > 300 µM; in assay [8] (setting [19]) it was > 50 µM.

With `CC1(C)COc2ccc(Cl)c3c2B(OC3CN)O1.Cl` (stereo not shown) [Example 11, (3-chloro-8,8-dimethyl-7,8-dihydro-2H-1,6,9-trioxa-9a-borabenzo[cd]azulen-2-yl)methanamine hydrochloride], the “Selectivity Index (A/B)” value in assay [9] (listed as EXAMPLE 11 G11-Cl, hydrochloride) is >185; in assay [9] (listed as Example 11 G11-CI, hydrochloride), > 185. The MIC in assay [9] was 0.27 µM; in assay [1] (setting [16]), > 64 µg/mL; in assay [2] it was > 64 µg/mL; in assay [3] (setting [17]), > 64 µg/mL; in assay [4] (setting [18]), > 64 µg/mL. Also, the IC50 in assay [5] (read-out: Mtb LeuRS IC50) was 0.68 µM; in [6] it was > 300 µM; in assay [8] (setting [19]) it was > 50 µM.

Take `CC1COc2ccc(Br)c3c2B(O1)OC3CN.Cl` (stereo not shown) [Example 8, (3-bromo-8-methyl-7,8-dihydro-2H-1,6,9-trioxa-9a-borabenzo[cd]azulen-2-yl)methanamine hydrochloride]: the “Selectivity Index (A/B)” value in assay [9] is >167. In addition, the MIC is 0.3 µM in assay [9]; > 64 µg/mL in assay [1] (setting [16]); > 64 µg/mL in assay [2]; > 64 µg/mL in assay [3] (setting [17]); > 64 µg/mL in assay [4] (setting [18]). Besides, the results for the IC50 in assay [5] (read-out: Mtb LeuRS IC50), in [6] and in assay [8] (setting [19]) were 1.43 µM, > 300 µM and > 50 µM, respectively.

As for `CC1(C)COc2ccc(Br)c3c2B(OC3CN)O1.Cl` (stereo not shown) [Example 9, (3-bromo-8,8-dimethyl-7,8-dihydro-2H-1,6,9-trioxa-9a-borabenzo[cd]azulen-2-yl)methanamine hydrochloride], the “Selectivity Index (A/B)” value in [9] (listed as EXAMPLE 9 G9-Br, hydrochloride) was >167; in assay [9] (listed as Example 9 G9-Br, hydrochloride), > 167. Besides, the minimal inhibitory concentration (MIC) was 0.3 µM in assay [9]; > 64 µg/mL in [1] (setting [16]); > 64 µg/mL in [2]; > 64 µg/mL in assay [3] (setting [17]); > 64 µg/mL in assay [4] (setting [18]). Moreover, the IC50 in assay [5] (read-out: Mtb LeuRS IC50) was 1.25 µM; in assay [6] it was > 300 µM; in assay [8] (setting [19]), > 50 µM.

On to `CCOc1cccc2c1B(O)O[C@@H]2CN` [Example C5-H, reference compound], for which the “Selectivity Index (A/B)” value in assay [9] is given as 5. The IC50 is 0.111 µM in assay [5] (read-out: Mtb LeuRS IC50), 25.6 µM in [6], > 300 µM in assay [7] and 1.8 µM in [8] (setting [14]).

For the compound `CCOc1ccc(Cl)c2c1B(O)O[C@@H]2CN` [Example C6-Cl, reference compound], the MIC in assay [1] (setting [11]), in assay [2], in assay [3] (setting [12]) and in assay [4] (setting [13]) was 64 µg/mL (≈ 265 µM) each time. Moreover, the IC50 in [5] (Mtb LeuRS IC50) was 0.05 µM; in [7], > 300 µM; in assay [8] (setting [14]), 36.3 µM.

Turning to `CC1(C)COc2ccc(Br)c3c2B(O[C@@H]3CN)O1.Cl` [Example 10, (S)-(3-bromo-8,8-dimethyl-7,8-dihydro-2H-1,6,9-trioxa-9a-borabenzo[cd]azulen-2-yl)methanamine hydrochloride], the MIC in assay [9] was 0.16 µM; in [1] (setting [16]), > 64 µg/mL; in assay [2] it was > 64 µg/mL; in assay [3] (setting [17]), > 64 µg/mL; in assay [4] (setting [18]), > 64 µg/mL. For the same compound, the IC50 in assay [5] (read-out: Mtb LeuRS IC50) was 1.13 µM; in [6], > 300 µM; in assay [8] (setting [19]), 460 µM.

On to `NC[C@H]1OB2OCCOc3ccc(Cl)c1c32` [Example G4-CI], for which the MIC in assay [10] was < 0.1 µM.

With `CC1(C)COc2ccc(Cl)c3c2B(O[C@@H]3CN)O1.Cl` [Example 12, (S)-(3-chloro-8,8-dimethyl-7,8-dihydro-2H-1,6,9-trioxa-9a-borabenzo[cd]azulen-2-yl)methanamine hydrochloride], the MIC in assay [9] is 0.08 µM; in assay [1] (setting [16]) it was > 64 µg/mL; in assay [2], > 64 µg/mL; in assay [3] (setting [17]) it was > 64 µg/mL; in assay [4] (setting [18]) it was > 64 µg/mL. Also, the IC50 was 0.78 µM in [5] (read-out: Mtb LeuRS IC50), > 300 µM in assay [6] and 322 µM in assay [8] (setting [19]).
